The values below come from ChEMBL document CHEMBL1201862, “PubChem BioAssay data set” (2004).

Each structure is given as a SMILES string.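 Following 48 hours of exposure in 96-well plates, responses at five concentrations were used to interpolate endpoints linearly. GI50 marks 50% less growth.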 The source made the active and inactive calls. Cut-off read from the data, not from the text of the source: active = GI50 up to about 1.1 µM and inactive = higher.

What all share (experiment): NCI anticancer screen, dose series, 48 h
For assay [1], the system named is 786-0.
For assay [2], the system named is SF-268.
The test system of assay [3] is SF-295.
Assay [4] concerns M14.
Assay [5] has as its system CAKI-1.
Assay [6] deals with A549.
Assay [7] deals with SR.
Assay [8] deals with MDA-N.
Assay [9] deals with MOLT-4.
Assay [10] has as its system SK-MEL-5.
Assay [11] concerns HCT-15.
Assay [12] concerns SF-539.
For assay [13], the system named is SK-OV-3.
Assay [14] deals with A498.
In assay [15] the test system is SW-620.
Assay [16] has as its system Hs-578T.
Assay [17] relates to UACC-62.
Assay [18] relates to NCI-H460.

For `CCO/C=N\C1=C(C#N)SC2=N/C(=C\c3ccco3)C(=O)N21`, the GI50 in assay [1], in [2], in [3], in assay [4], in assay [5] and in [6] was > 100 µM (inactive) each time. The GI50 in [7] is > 100 µM (inactive); in [8], > 100 µM (inactive); in [9], > 100 µM (inactive); in assay [10], > 100 µM (inactive); in assay [11], above 100 µM; in assay [12], > 100 µM (inactive). Besides, the GI50 in assay [13], in assay [14], in assay [15] and in assay [16] was > 100 µM (inactive) throughout.

With `CC(C)C(=O)/C=C/c1ccccc1`, the GI50 in assay [1] is 46.5 µM (inactive); in [17], 87.3 µM (inactive); in assay [2], > 100 µM (inactive); in [3] it was 91.2 µM (inactive); in assay [4], > 100 µM (inactive); in assay [6] it was > 100 µM (inactive). Further, the GI50 in [7] is 31.2 µM (inactive); in [9], 54.3 µM (inactive); in assay [10], 67.3 µM (inactive); in [12] it was > 100 µM (inactive); in assay [13], > 100 µM (inactive); in assay [18] it was 50.6 µM (inactive). The GI50 in assay [14] is > 100 µM (inactive); in assay [15], 72.1 µM (inactive).

With `CC1CN=C(N(C(=O)Nc2ccccc2)c2ccc(Cl)c(Cl)c2)S1` (configuration not stated), the GI50 in [1] is 31.1 µM (inactive); in [2], 61 µM (inactive); in assay [3] it was 45.5 µM (inactive); in [4], 38.7 µM (inactive); in assay [5] it was 27.9 µM (inactive); in assay [6], 25.9 µM (inactive). Also, the GI50 in assay [7] is 24.4 µM (inactive); in [8], > 10 µM (inactive); in assay [9] it was > 10 µM (inactive); in assay [10], 18.5 µM (inactive); in assay [11] it was 23.2 µM; in assay [12], 40.5 µM (inactive). The GI50 is 52.7 µM (inactive) in assay [13]; 19.3 µM (inactive) in assay [18]; 14.3 µM (inactive) in assay [14]; 30.5 µM (inactive) in assay [15]; 65 µM (inactive) in assay [16].

Consider `c1ccc(C[n+]2ccc3c(c2)CCCC3)cc1`, for which the GI50 in [1] is > 100 µM (inactive); in assay [17], > 100 µM (inactive); in [2], > 100 µM (inactive); in assay [3] it was 77.3 µM (inactive); in assay [4] it was 95.7 µM (inactive); in assay [5], > 100 µM (inactive). Further, the GI50 in [6] was 77.3 µM (inactive); in [7], > 100 µM (inactive); in assay [8], > 100 µM (inactive); in assay [9], > 100 µM (inactive); in assay [10], 19.6 µM (inactive); in [11], above 100 µM. For the same molecule, the GI50 in assay [12] was > 100 µM (inactive); in assay [13] it was > 100 µM (inactive); in assay [18] it was 78.7 µM (inactive); in assay [15], > 100 µM (inactive); in [16], 49.9 µM (inactive).

In the case of `Cc1nn(CNc2ccc(F)c(Cl)c2)c(=S)n1/N=C/c1ccc(-c2ccc(Cl)cc2Cl)o1`, the GI50 in [1] is 15.3 µM (inactive); in assay [2], 16.3 µM (inactive); in assay [3] it was 15.7 µM (inactive); in assay [4] it was 18.7 µM (inactive); in assay [5], 16.8 µM (inactive); in assay [7] it was 1.4 µM (inactive). Further, the GI50 is 17.7 µM (inactive) in assay [8]; 0.493 µM (active) in assay [9]; 16.7 µM (inactive) in [10]; 16.9 µM in [11]; 16.8 µM (inactive) in assay [12]; 16.9 µM (inactive) in assay [13]. Besides, the GI50 in assay [18] is 17.1 µM (inactive); in [14], 15.1 µM (inactive); in assay [15], 15.6 µM (inactive); in assay [16] it was 15.5 µM (inactive).

Consider `CCC(C(=O)c1ccccc1)C(CCCC(=O)Nc1c(C)cccc1C)N=O` (configuration not stated), for which the GI50 in assay [1], in [17], in assay [2], in assay [3], in assay [4] and in assay [5] was > 100 µM (inactive) each time. Besides, the GI50 in assay [6] was > 100 µM (inactive); in [7], > 100 µM (inactive); in assay [9] it was > 100 µM (inactive); in assay [10], > 100 µM (inactive); in assay [11], above 100 µM; in [12], > 100 µM (inactive). For the same molecule, the GI50 in assay [13], in assay [18], in assay [14] and in assay [15] was > 100 µM (inactive) in each case.

As for `c1ccc2c(Cc3nnc4sc(SSc5nn6c(Cc7c[nH]c8ccccc78)nnc6s5)nn34)c[nH]c2c1`, the GI50 in [1] is 20.8 µM (inactive); in assay [17] it was 16 µM (inactive); in assay [2], 21.8 µM (inactive); in assay [3], 19.5 µM (inactive); in [4], 18.5 µM (inactive); in assay [5], 18.7 µM (inactive). Further, the GI50 was 28.8 µM (inactive) in assay [6]; 18.1 µM (inactive) in assay [7]; 8.93 µM (inactive) in [9]; 11.2 µM (inactive) in assay [10]; 21.3 µM in [11]; 23.1 µM (inactive) in assay [12]. In addition, the GI50 in assay [13] was 39.9 µM (inactive); in assay [18] it was 30.4 µM (inactive); in assay [14], 11.3 µM (inactive); in assay [15], 16.7 µM (inactive); in [16], 23.8 µM (inactive).

As for `C[C@]12C(=O)C=CCC1=CC[C@@H]1[C@@H]2[C@H]2CC3(O)C(=O)O[C@@]4(C)[C@H]5C[C@@]6(C)[C@@H]7[C@@]2(O)[C@]1(OC[C@H]6C(=O)O5)O[C@]734` (some centres not stated), the GI50 in assay [1] is 34.5 µM (inactive); in assay [17] it was 26.4 µM (inactive); in [2], 37.1 µM (inactive); in assay [3] it was 57.4 µM (inactive); in assay [4], 28.8 µM (inactive); in [5] it was 40.7 µM (inactive). For the same molecule, the GI50 in assay [6] was > 100 µM (inactive); in [7] it was 28.4 µM (inactive); in assay [8], 37.9 µM (inactive); in assay [9] it was 23.2 µM (inactive); in assay [10], 50 µM (inactive); in assay [11], 53.7 µM. The GI50 is 17.7 µM (inactive) in [12]; 35.8 µM (inactive) in [18]; 54.6 µM (inactive) in [14]; 35.2 µM (inactive) in [15]; 51.1 µM (inactive) in assay [16].

For `COc1cc(/C=C2\CCC(C)c3c2nc(N)c(C#N)c3-c2cc(OC)c(OC)c(OC)c2)cc(OC)c1OC` (configuration not stated), the GI50 in [1] is 37.4 µM (inactive); in assay [17] it was > 100 µM (inactive); in assay [2] it was 25.7 µM (inactive); in assay [4], 45.7 µM (inactive); in [5], > 100 µM (inactive); in [6], > 100 µM (inactive). Further, the GI50 in [7] was 25.8 µM (inactive); in [8], > 100 µM (inactive); in [9], 25.2 µM (inactive); in [10], 71.9 µM (inactive); in assay [11], 27.1 µM; in [13], > 100 µM (inactive). In addition, the figures for the GI50 in assay [14], in [15] and in [16] were > 100 µM (inactive), 81.8 µM (inactive) and 18.7 µM (inactive), respectively.

For `CC[S+]([O-])C(=O)N(O)c1ccc(Cl)cc1` (configuration not stated), the GI50 in assay [1] is 21.7 µM (inactive); in assay [17], 8.55 µM (inactive); in assay [2], 20.8 µM (inactive); in [3], 85.7 µM (inactive); in assay [4], 12.8 µM (inactive); in assay [5], 17.7 µM (inactive). The GI50 in [6] is 67.3 µM (inactive); in [8] it was 20 µM (inactive); in assay [9], 9.64 µM (inactive); in [10], 26.4 µM (inactive); in assay [11], 23.8 µM; in assay [12] it was 24.9 µM (inactive). The GI50 in [13] was > 100 µM (inactive); in [14], 56.4 µM (inactive); in [15], 18 µM (inactive); in assay [16], 41.2 µM (inactive).

As for `CCCCCCCCNC(=O)SCCCC`, the GI50 was 30.6 µM (inactive) in [1]; 43.2 µM (inactive) in [17]; 34.9 µM (inactive) in assay [2]; 38 µM (inactive) in assay [3]; 33.8 µM (inactive) in [4]; 21.3 µM (inactive) in [5]. The GI50 was 33.9 µM (inactive) in assay [6]; 22.5 µM (inactive) in assay [9]; 21.3 µM (inactive) in assay [10]; 27.9 µM in assay [11]; 38.6 µM (inactive) in assay [12]; > 100 µM (inactive) in assay [13]. Besides, the GI50 in assay [18] was 28.4 µM (inactive); in [14], 45.5 µM (inactive); in assay [15], 45.9 µM (inactive).

`COC(=O)/C=C/C1C(C(=O)OC)C2(C(=O)OC)CCC1(C(=O)OC)N2` (configuration not stated): the GI50 in assay [1], in assay [17], in assay [2], in assay [3], in assay [4] and in assay [5] was > 100 µM (inactive) throughout. The GI50 was > 100 µM (inactive) in assay [6]; > 100 µM (inactive) in assay [7]; > 100 µM (inactive) in assay [9]; > 100 µM (inactive) in [10]; above 100 µM in assay [11]; > 100 µM (inactive) in assay [12]. Besides, the GI50 in assay [13], in [18], in assay [14] and in assay [15] was > 100 µM (inactive) in each case.
